Several values for one entry are separate records, joined by “and”; a condition that tells them apart may be missing. Equal entries are not always repeated. Inconclusive results and toxic doses are left out. How the source made its calls: active means survival T/C of 150% or more; inactive means T/C below 125% in these data. Where a SMILES comes first, the peptide text is derived from it. [ ]: non-standard residue; d: D form. The star is where a group is joined. Cbz = O=C(OCc1ccccc1)*; Nva = CCC[CH](N)C(=O)O
Test system: B6C3F1 mice, B16 melanoma ip, median survival T/C
Assay: NCI In Vivo Anticancer Drug Screen. Data for tumor model B16 Melanoma (intraperitoneal) in B6C3F1 mice
Settings: endpoint: median survival time, schedule: Q01DX009 (ip), higher = longer survival
Method in brief: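 Readout: survival or tumor size in treated mice relative to vehicle controls (T/C). Model uses transplantable tumors grown in mice.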

[1] = dose: 100.0 mg/kg/injection, vehicle: Klucel (hydroxypropylcellulose) (HPC)
[2] = dose: 200.0 mg/kg/injection, vehicle: Klucel (hydroxypropylcellulose) (HPC)
[3] = dose: 400.0 mg/kg/injection, vehicle: Klucel (hydroxypropylcellulose) (HPC)
[4] = dose: 50.0 mg/kg/injection, vehicle: saline
[5] = dose: 100.0 mg/kg/injection, vehicle: saline
[6] = dose: 25.0 mg/kg/injection, vehicle: saline
[7] = dose: 50.0 mg/kg/injection, vehicle: Klucel (hydroxypropylcellulose) (HPC)

Measured: T/C

CCCC(NC(=O)OCc1ccccc1)C(=O)NC(CCSC)C(N)=O (configuration not stated) (Cbz-[Nva]-Met-NH2; configuration not given here)
inactive: [1] 104 % of control | [2] 103 % of control | [3] 93 % of control

CC1=NN(c2cccc(S(=O)(=O)O)c2)C(=O)C1N=Nc1cc(Cl)cc(S(=O)(=O)O)c1O.CC1=NN(c2cccc(S(=O)(=O)O)c2)C(=O)C1N=Nc1cc(Cl)cc(S(=O)(=O)O)c1O.[Cr] (configuration not stated)
inactive: [4] 91 % of control | [5] 91 % of control

NC1=NC(O)C=C1 (configuration not stated)
inactive: dose: 3.12 mg/kg/injection, vehicle: saline + alcohol 108 % of control | dose: 6.25 mg/kg/injection, vehicle: saline + alcohol 108 % of control | dose: 12.5 mg/kg/injection, vehicle: saline + alcohol 100 % of control | dose: 25.0 mg/kg/injection, vehicle: saline + alcohol 104 % of control

Nc1ncnc2c1ncn2C1OCC(O)C1O (configuration not stated)
inactive: dose: 12.5 mg/kg/injection, vehicle: saline 118 % of control | [6] 121 % of control | dose: 100.0 mg/kg/injection, vehicle: suspension in saline 124 % of control

C1CCC(NC2CCCCC2)CC1
inactive: [6] 86 % of control | [4] 101 % of control | [5] 106 % of control | dose: 200.0 mg/kg/injection, vehicle: saline 86 % of control | dose: 400.0 mg/kg/injection, vehicle: saline 104 % of control

CC(C)C(NC(=O)OCC1c2ccccc2-c2ccccc21)C(=O)O (configuration not stated)
inactive: [1] 91 % of control | [2] 91 % of control

NC(=O)c1ccc[n+](Cc2c(Cl)cccc2Cl)c1
inactive: dose: 1.5 mg/kg/injection, vehicle: saline 98 % of control | dose: 3.0 mg/kg/injection, vehicle: saline 98 % of control | dose: 6.0 mg/kg/injection, vehicle: saline 103 % of control | dose: 12.0 mg/kg/injection, vehicle: saline 98 % of control

Cc1ccc(NN=O)nc1
inactive: dose: 0.75 mg/kg/injection, vehicle: water 114 % of control | dose: 1.5 mg/kg/injection, vehicle: water 120 % of control | dose: 1.56 mg/kg/injection, vehicle: water 112 % of control | dose: 3.0 mg/kg/injection, vehicle: water 120 % of control | dose: 6.0 mg/kg/injection, vehicle: water 124 % of control

Oc1ccc2ccccc2c1N=Nc1ccc(F)cc1
inactive: dose: 50.0 mg/kg/injection, vehicle: saline with Tween-80 111 % of control and 113 % of control | dose: 100.0 mg/kg/injection, vehicle: saline with Tween-80 120 % of control | dose: 200.0 mg/kg/injection, vehicle: saline with Tween-80 109 % of control and 123 % of control | dose: 400.0 mg/kg/injection, vehicle: saline with Tween-80 113 % of control and 106 % of control

CC1CCC2C(C)C(=O)OC2C2(C)C(=O)C=CC12 (configuration not stated)
inactive: dose: 14.0 mg/kg/injection, vehicle: Klucel (hydroxypropylcellulose) (HPC) 95 % of control | dose: 22.0 mg/kg/injection, vehicle: Klucel (hydroxypropylcellulose) (HPC) 95 % of control | dose: 35.0 mg/kg/injection, vehicle: Klucel (hydroxypropylcellulose) (HPC) 97 % of control | [7] 97 % of control

Cc1ccc(C2NC(=S)N3C(c4ccc(C)cc4)NC(=S)N23)cc1 (configuration not stated)
inactive: dose: 25.0 mg/kg/injection, vehicle: Klucel (hydroxypropylcellulose) (HPC) 119 % of control | [7] 114 % of control | [1] 118 % of control | [2] 109 % of control and 88 % of control | [3] 114 % of control and 105 % of control | dose: 800.0 mg/kg/injection, vehicle: Klucel (hydroxypropylcellulose) (HPC) 101 % of control
